In ChEMBL document CHEMBL1145312, “Structure-activity relationships of triazolopyridine oxazole p38 inhibitors: identification of candidates for clinical development” (Bioorg Med Chem Lett, 2006):
≈ marks a conversion by molar mass, not a printed value.

Tests used:
[1] = Solubility in PBS buffer at ph 6.5; assay type: physicochemical
[2] = Volume of distribution in rat; assay type: ADME, organism-based; conditions: in vivo, read-out: Vdss
[3] = Half life in rat; assay type: ADME, organism-based; conditions: in vivo
[4] = Bioavailability in rat; assay type: ADME, organism-based; conditions: in vivo
[5] = Plasma clearance in monkey; assay type: ADME, organism-based, Macaca mulatta; conditions: rhesus monkey
[6] = Volume of distribution in monkey; assay type: ADME, organism-based, Macaca mulatta; conditions: rhesus monkey, in vivo; read-out: Vdss
[7] = Half life in monkey; assay type: ADME, organism-based, Macaca mulatta; conditions: rhesus monkey, in vivo
[8] = Bioavailability in monkey; assay type: ADME, organism-based, Macaca mulatta; conditions: rhesus monkey, in vivo
hERG (KCNH2) = hERG (KCNH2) (Homo sapiens, UniProt Q12809); test: Inhibition of hERG channel current in HEK293 cells at 3 uM; assay type: toxicity, cell-based; conditions: HEK293 cells that express hERG
Rattus norvegicus = species: Rattus norvegicus; test: Inhibition of LPS-induced TNFalpha release in rat; assay type: functional
[9] = target: T1, Mitogen-activated protein kinase 13 (Homo sapiens, UniProt O15264); test: Inhibition of p38delta
T1 sequence (O15264 whole entry): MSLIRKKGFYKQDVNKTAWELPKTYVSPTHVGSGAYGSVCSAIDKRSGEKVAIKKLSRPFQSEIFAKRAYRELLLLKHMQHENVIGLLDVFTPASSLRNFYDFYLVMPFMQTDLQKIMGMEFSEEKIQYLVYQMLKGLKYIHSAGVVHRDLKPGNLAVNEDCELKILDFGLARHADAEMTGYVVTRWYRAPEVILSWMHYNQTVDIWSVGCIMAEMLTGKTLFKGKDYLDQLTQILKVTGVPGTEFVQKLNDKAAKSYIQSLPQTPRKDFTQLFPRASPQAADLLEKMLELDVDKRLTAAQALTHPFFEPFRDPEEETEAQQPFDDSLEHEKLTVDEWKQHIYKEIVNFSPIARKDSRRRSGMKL

[10] = Plasma clearance in rat; assay type: ADME, organism-based
[11] = target: c-Jun N-terminal kinase, JNK (Homo sapiens, UniProt P45983+P53779+P45984); test: Inhibition of JNK; assay type: protein assay
[12] = target: MAP kinase-activated protein kinase 2 (Homo sapiens, UniProt P49137); test: Inhibition of MAPKAP-K2
[13] = target: Protein kinase C alpha type (Homo sapiens, UniProt P17252); test: Inhibition of PKCalpha
[14] = target: T2, Serine/threonine-protein kinase Chk1 (Homo sapiens, UniProt O14757); test: Inhibition of CHK1
T2 sequence (O14757 whole entry): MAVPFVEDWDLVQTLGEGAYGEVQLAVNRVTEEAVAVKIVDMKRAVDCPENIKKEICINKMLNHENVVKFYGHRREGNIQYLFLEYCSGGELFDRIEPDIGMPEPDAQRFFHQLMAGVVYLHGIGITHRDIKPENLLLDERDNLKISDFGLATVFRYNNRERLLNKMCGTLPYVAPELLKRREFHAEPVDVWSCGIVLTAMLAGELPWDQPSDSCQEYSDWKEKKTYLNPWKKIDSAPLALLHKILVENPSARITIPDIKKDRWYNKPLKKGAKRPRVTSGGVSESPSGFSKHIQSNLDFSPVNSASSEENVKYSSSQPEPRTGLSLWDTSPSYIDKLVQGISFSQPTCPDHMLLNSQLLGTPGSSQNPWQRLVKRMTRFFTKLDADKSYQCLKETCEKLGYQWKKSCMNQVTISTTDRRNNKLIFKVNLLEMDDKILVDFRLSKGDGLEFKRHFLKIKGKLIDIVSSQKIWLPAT

[15] = Permeability from apical to basolateral side of Caco-2 cell membrane; assay type: ADME, cell-based; conditions: human
[16] = Permeability from basolateral to apical side of Caco-2 cell membrane; assay type: ADME, cell-based; conditions: human
Casein kinase II = Casein kinase II (Homo sapiens, UniProt P19784+P67870+P68400); test: Inhibition of CK2; assay type: protein-complex assay
[17] = Hepatocyte microsomal extraction ratio in human; conditions: hepatic microsomes

Sequence of MAP kinase-activated protein kinase 2 (P49137 whole entry): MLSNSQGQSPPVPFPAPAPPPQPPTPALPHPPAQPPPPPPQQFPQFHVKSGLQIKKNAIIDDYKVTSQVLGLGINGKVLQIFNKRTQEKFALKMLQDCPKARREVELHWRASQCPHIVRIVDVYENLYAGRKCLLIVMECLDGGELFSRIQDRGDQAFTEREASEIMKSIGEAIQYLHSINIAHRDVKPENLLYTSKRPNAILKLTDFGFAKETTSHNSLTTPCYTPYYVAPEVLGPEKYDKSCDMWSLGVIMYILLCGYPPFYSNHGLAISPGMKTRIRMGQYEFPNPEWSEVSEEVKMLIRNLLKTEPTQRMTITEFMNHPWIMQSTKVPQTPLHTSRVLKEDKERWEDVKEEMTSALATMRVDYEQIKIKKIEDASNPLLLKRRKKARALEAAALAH
Sequence of Casein kinase II (P67870 whole entry): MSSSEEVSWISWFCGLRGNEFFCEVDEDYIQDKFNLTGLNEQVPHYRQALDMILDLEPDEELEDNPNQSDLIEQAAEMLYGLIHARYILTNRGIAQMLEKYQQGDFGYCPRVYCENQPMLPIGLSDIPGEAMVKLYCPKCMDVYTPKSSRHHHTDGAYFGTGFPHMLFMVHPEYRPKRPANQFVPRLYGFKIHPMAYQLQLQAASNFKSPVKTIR
Sequence of Casein kinase II (P68400 whole entry): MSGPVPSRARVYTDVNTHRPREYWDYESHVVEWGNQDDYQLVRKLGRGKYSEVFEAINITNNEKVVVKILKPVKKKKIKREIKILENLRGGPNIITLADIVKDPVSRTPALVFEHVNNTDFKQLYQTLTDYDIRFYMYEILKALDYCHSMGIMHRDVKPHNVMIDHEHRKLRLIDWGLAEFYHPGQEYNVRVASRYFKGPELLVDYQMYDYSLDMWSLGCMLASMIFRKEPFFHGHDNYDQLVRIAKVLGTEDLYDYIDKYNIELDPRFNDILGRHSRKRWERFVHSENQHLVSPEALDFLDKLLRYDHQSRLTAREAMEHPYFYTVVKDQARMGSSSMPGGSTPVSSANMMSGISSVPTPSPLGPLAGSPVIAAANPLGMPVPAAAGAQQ
Sequence of Casein kinase II (P19784 whole entry): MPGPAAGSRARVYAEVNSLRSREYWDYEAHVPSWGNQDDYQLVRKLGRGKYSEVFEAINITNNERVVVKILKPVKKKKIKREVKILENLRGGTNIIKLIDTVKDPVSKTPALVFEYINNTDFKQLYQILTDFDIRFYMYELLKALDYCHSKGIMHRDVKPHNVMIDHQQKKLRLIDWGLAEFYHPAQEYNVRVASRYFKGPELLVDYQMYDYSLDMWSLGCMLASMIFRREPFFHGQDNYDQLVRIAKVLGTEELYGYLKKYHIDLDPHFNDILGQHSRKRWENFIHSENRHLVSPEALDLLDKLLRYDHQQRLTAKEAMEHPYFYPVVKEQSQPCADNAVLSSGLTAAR
Sequence of hERG (KCNH2) (Q12809 whole entry): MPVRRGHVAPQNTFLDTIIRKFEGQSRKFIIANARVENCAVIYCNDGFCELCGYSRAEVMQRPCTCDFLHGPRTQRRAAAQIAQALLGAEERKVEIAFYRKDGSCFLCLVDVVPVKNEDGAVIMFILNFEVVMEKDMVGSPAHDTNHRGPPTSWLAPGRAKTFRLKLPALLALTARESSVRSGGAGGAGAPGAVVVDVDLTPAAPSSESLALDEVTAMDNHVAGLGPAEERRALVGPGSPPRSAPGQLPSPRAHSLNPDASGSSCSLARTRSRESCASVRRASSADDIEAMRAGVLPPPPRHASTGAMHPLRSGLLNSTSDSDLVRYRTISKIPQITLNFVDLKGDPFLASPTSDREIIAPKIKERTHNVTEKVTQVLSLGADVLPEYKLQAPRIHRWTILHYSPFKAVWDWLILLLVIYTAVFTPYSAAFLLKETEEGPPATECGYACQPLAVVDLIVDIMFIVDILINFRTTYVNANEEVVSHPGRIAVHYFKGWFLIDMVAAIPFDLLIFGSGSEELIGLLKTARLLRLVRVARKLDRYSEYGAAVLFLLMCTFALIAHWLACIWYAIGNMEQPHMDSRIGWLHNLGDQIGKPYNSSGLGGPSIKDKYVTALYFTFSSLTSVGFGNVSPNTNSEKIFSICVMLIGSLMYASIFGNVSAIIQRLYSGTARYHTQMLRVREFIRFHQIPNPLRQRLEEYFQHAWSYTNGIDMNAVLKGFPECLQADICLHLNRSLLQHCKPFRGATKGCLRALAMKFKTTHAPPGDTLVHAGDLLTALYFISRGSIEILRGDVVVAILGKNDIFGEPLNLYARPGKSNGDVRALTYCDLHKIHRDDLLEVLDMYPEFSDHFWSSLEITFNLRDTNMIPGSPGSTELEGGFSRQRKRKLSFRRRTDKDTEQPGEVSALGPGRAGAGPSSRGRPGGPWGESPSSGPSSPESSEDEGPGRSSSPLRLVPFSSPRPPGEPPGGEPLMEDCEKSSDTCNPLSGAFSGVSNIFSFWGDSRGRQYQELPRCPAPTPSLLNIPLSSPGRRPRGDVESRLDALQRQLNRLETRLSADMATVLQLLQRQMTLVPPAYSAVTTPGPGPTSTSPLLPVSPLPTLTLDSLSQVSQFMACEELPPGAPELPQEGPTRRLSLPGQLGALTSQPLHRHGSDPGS

solubility [1]	Vd [2]	half-life [3]	bioavailability [4]	clearance [5]	Vd [6]	half-life [7]	bioavailability [8]	IC50 [9]	clearance [10]	IC50 [11]	IC50 [12]	IC50 [13]	IC50 [14]	Papp A→B [15]	Papp B→A [16]	IC50 (Casein kinase II)	hepatic extraction ratio [17]	SMILES	inhibition at 3 µM (hERG (KCNH2))	ED50 (Rattus norvegicus)
41 µg/mL (≈ 110 µM)	0.6 L/kg	2.6 h	54%	3.4 mL/min/kg	1.2 L/kg	5.2 h	66%	> 10 µM	3 mL/min/kg	> 10 µM	> 10 µM	> 10 µM	> 10 µM	–	–	–	–	CC(C)(C)c1nnc2ccc(-c3ocnc3-c3cc(F)c(F)cc3F)cn12	5.9%	0.1 mg/kg
–	–	–	–	–	–	–	–	> 10 µM	–	> 10 µM	> 10 µM	> 10 µM	> 10 µM	–	–	–	< 0.3	CC(C)(C)c1nnc2ccc(-c3ocnc3-c3ccc(F)cc3F)cn12	–	–

Continued, molecule first:

SMILES	solubility [1]	Vd [2]	half-life [3]	bioavailability [4]	clearance [5]	Vd [6]	half-life [7]	bioavailability [8]	IC50 [9]	clearance [10]	IC50 [11]	IC50 [12]	IC50 [13]	IC50 [14]	Papp A→B [15]	Papp B→A [16]	IC50 (Casein kinase II)	hepatic extraction ratio [17]	inhibition at 3 µM (hERG (KCNH2))	ED50 (Rattus norvegicus)
CC(C)c1nnc2ccc(-c3c[nH]nc3-c3cc(F)ccc3F)cn12	–	–	–	–	–	–	–	–	> 10 µM	–	> 10 µM	> 10 µM	> 10 µM	> 10 µM	6 ×10⁻⁶ cm/s	18 ×10⁻⁶ cm/s	–	–	–	–
CC(C)c1nnc2ccc(-c3ocnc3-c3ccccc3)cn12	–	–	–	–	–	–	–	–	> 10 µM	–	> 10 µM	> 10 µM	> 10 µM	> 10 µM	–	–	> 10 µM	–	–	–
CCNc1nnc2ccc(-c3ocnc3-c3ccc(F)cc3)cn12	–	–	–	–	–	–	–	–	> 10 µM	–	> 10 µM	> 10 µM	> 10 µM	> 10 µM	–	–	–	–	–	–
